Earlier results as cited in US20170027865A1, “Dry Pharmaceutical Compositions for Topical Delivery of Oral Medications, Nasal Delivery and to Treat Ear Disorders” (CMPD LICENSING LLC, priority 2013, published 2017).

Tests used:
[1] = test system: Shigella dysenteriae; conditions: Gram: neg
[2] = test system: Enterobacter sakazakii; conditions: Gram: neg
[3] = test system: Vibrio cholerae; conditions: Gram: neg
[4] = test system: Staphylococcus epidermidis; conditions: Gram: pos
[5] = test system: Klebsiella oxytoca; conditions: Gram: neg
[6] = test system: Chlamydia psittaci; conditions: Chlamydia psittaci; Gram: n/a
[7] = test system: Francisella tularensis; conditions: Francisella tularensis; Gram: neg
[8] = test system: Campylobacter jejuni; conditions: Gram: neg
[9] = test system: Neisseria gonorrhoeae; conditions: Gram: neg
[10] = test system: Clostridium difficile; conditions: Gram: anaer
[11] = test system: Haemophilus parainfluenzae; conditions: Gram: neg
[12] = test system: Rickettsiae; conditions: Rickettsiae; Gram: neg
[13] = test system: Providencia stuartii; conditions: Gram: neg
[14] = test system: Acinetobacter lwoffii; conditions: Gram: neg
[15] = test system: Klebsiella pneumoniae; conditions: Gram: neg
[16] = test system: Shigella flexneri; conditions: Gram: neg
[17] = test system: Acinetobacter calcoaceticus; conditions: Gram: neg
[18] = test system: Methicillin Resistant Staph aureus (MRSA); conditions: Gram: pos
[19] = test system: Diphtheroids; conditions: Gram: pos
[20] = test system: Viridans group streptococci; conditions: Gram: pos
[21] = test system: Enterobacter cloacae; conditions: Gram: neg
[22] = test system: Citrobacter diversus; conditions: Gram: neg
[23] = test system: Clostridium perfringens; conditions: Clostridium perfringens; Gram: anaer
[24] = test system: Bordetella pertussis; conditions: Gram: neg
[25] = test system: Peptostreptococcus; conditions: Gram: pos
[26] = test system: Yersinia pestis; conditions: Yersinia pestis; Gram: neg
[27] = test system: Shigella sonnei; conditions: Gram: neg
[28] = test system: Streptococcus pyogenes; conditions: Gram: pos
[29] = test system: Proteus mirabilis; conditions: Gram: neg
[30] = test system: Citrobacter freundii; conditions: Gram: neg
[31] = test system: Mycoplasma pneumoniae; conditions: Gram: n/a
[32] = test system: Morganella morganii; conditions: Gram: neg
[33] = test system: Haemophilus influenzae; conditions: Gram: neg
[34] = test system: Shigella boydii; conditions: Gram: neg
[35] = test system: Bacteroides fragilis; conditions: Gram: anaer
[36] = test system: Escherichia coli; conditions: Gram: neg
[37] = test system: Streptococcus pneumoniae; conditions: Gram: pos
[38] = test system: Chlamydia pneumoniae; conditions: Gram: n/a
[39] = test system: Corynebacterium jeikeium; conditions: Gram: pos
[40] = test system: Salmonella typhi; conditions: Gram: neg
[41] = test system: Pseudomonas aeruginosa; conditions: Gram: neg
[42] = test system: Staphylococcus aureus (MSSA); conditions: Gram: pos
[43] = test system: Neisseria meningitidis; conditions: Gram: neg
[44] = test system: Enterococcus faecalis; conditions: Gram: pos
[45] = test system: Enterococcus faecium; conditions: Gram: pos
[46] = test system: Serratia marcescens; conditions: Gram: neg
[47] = test system: Klebsiella (Calymmatobacterium) granulomatis; conditions: Gram: neg
[48] = test system: Haemophilus ducreyi; conditions: Gram: neg
[49] = test system: Proteus vulgaris; conditions: Gram: neg
[50] = test system: Chlamydia trachomatis; conditions: Gram: n/a
[51] = test system: Acinetobacter baumannii; conditions: Gram: neg
[52] = test system: Streptococcus agalactiae; conditions: Gram: pos
[53] = test system: Providencia rettgeri; conditions: Gram: neg
[54] = test system: Moraxella catarrhalis; conditions: Gram: neg
[55] = test system: Legionella pneumophila; conditions: Legionella pneumophila; Gram: neg
[56] = test system: Corynebacterium urealyticum; conditions: Gram: pos
[57] = test system: Enterobacter aerogenes; conditions: Gram: neg
[58] = test system: Bartonella bacilliformis; conditions: Gram: neg
[59] = test system: Pseudomonas fluorescens; conditions: Gram: neg
[60] = test system: Brucella species; conditions: Brucella species; Gram: neg

## CO/N=C(\C(=O)N[C@@H]1C(=O)N2C(C(=O)O)=C(CSc3nc(=O)c(=O)[nH]n3C)CS[C@H]12)c1csc(N)n1 [Ceftriaxone, ceftriaxone]
[1]
  Expected coverage: yes
[2]
  Expected coverage: yes
[3]
  Expected coverage: no
[4]
  Expected coverage: yes
[5]
  Expected coverage: yes
[6]
  Expected coverage: no
[7]
  Expected coverage: no
[8]
  Expected coverage: no
[9]
  Expected coverage: yes
[10]
  Expected coverage: no
[11]
  Expected coverage: yes
[12]
  Expected coverage: no
[13]
  Expected coverage: yes
[14]
  Expected coverage: no
[15]
  Expected coverage: yes
[16]
  Expected coverage: yes
[17]
  Expected coverage: no
[18]
  Expected coverage: no
[19]
  Expected coverage: no
[20]
  Expected coverage: yes
[21]
  Expected coverage: yes
[22]
  Expected coverage: yes
[23]
  Expected coverage: yes
[24]
  Expected coverage: no
[25]
  Expected coverage: yes
[26]
  Expected coverage: no
[27]
  Expected coverage: yes
[28]
  Expected coverage: yes
[29]
  Expected coverage: yes
[30]
  Expected coverage: yes
[31]
  Expected coverage: no
[32]
  Expected coverage: yes
[33]
  Expected coverage: yes
[34]
  Expected coverage: yes
[35]
  Expected coverage: yes
[36]
  Expected coverage: yes
[37]
  Expected coverage: yes
[38]
  Expected coverage: no
[39]
  Expected coverage: no
[40]
  Expected coverage: yes
[41]
  Expected coverage: no
[42]
  Expected coverage: yes
[43]
  Expected coverage: yes
[44]
  Expected coverage: no
[45]
  Expected coverage: no
[46]
  Expected coverage: yes
[47]
  Expected coverage: yes
[48]
  Expected coverage: yes
[49]
  Expected coverage: yes
[50]
  Expected coverage: no
[51]
  Expected coverage: no
[52]
  Expected coverage: yes
[53]
  Expected coverage: yes
[54]
  Expected coverage: yes
[55]
  Expected coverage: no
[56]
  Expected coverage: no
[57]
  Expected coverage: yes

## O=C(O)c1cn(C2CC2)c2cc(N3CCNCC3)c(F)cc2c1=O [Ciprofloxacin, ciprofloxacin]
[1]
  Expected coverage: yes
[3]
  Expected coverage: yes
[4]
  Expected coverage: yes
[5]
  Expected coverage: yes
[7]
  Expected coverage: yes
[8]
  Expected coverage: yes
[9]
  Expected coverage: yes
[11]
  Expected coverage: yes
[12]
  Expected coverage: yes
[13]
  Expected coverage: yes
[15]
  Expected coverage: yes
[16]
  Expected coverage: yes
[18]
  Expected coverage: no
[22]
  Expected coverage: yes
[26]
  Expected coverage: yes
[27]
  Expected coverage: yes
[29]
  Expected coverage: yes
[58]
  Expected coverage: yes
[30]
  Expected coverage: yes
[32]
  Expected coverage: yes
[33]
  Expected coverage: yes
[34]
  Expected coverage: yes
[35]
  Expected coverage: no
[36]
  Expected coverage: yes
[38]
  Expected coverage: yes
[39]
  Expected coverage: no
[40]
  Expected coverage: yes
[41]
  Expected coverage: yes
[43]
  Expected coverage: yes
[45]
  Expected coverage: no
[46]
  Expected coverage: yes
[49]
  Expected coverage: yes
[53]
  Expected coverage: yes
[54]
  Expected coverage: yes
[55]
  Expected coverage: yes
[59]
  Expected coverage: yes
[57]
  Expected coverage: yes

## C/C(=C\C(=O)OCCCCCCCCC(=O)O)C[C@@H]1OC[C@H](C[C@@H]2O[C@H]2[C@@H](C)[C@H](C)O)[C@@H](O)[C@H]1O [Bactroban]
[1]
  Expected coverage: no
[2]
  Expected coverage: no
[3]
  Expected coverage: no
[5]
  Expected coverage: no
[7]
  Expected coverage: no
[8]
  Expected coverage: no
[9]
  Expected coverage: no
[12]
  Expected coverage: no
[13]
  Expected coverage: no
[14]
  Expected coverage: no
[15]
  Expected coverage: no
[16]
  Expected coverage: no
[17]
  Expected coverage: no
[18]
  Expected coverage: yes
[21]
  Expected coverage: no
[22]
  Expected coverage: no
[23]
  Expected coverage: no
[24]
  Expected coverage: no
[26]
  Expected coverage: no
[60]
  Expected coverage: no
[27]
  Expected coverage: no
[28]
  Expected coverage: yes
[29]
  Expected coverage: no
[58]
  Expected coverage: no
[30]
  Expected coverage: no
[32]
  Expected coverage: no
[33]
  Expected coverage: no
[34]
  Expected coverage: no
[36]
  Expected coverage: no
[39]
  Expected coverage: no
[40]
  Expected coverage: no
[41]
  Expected coverage: no
[42]
  Expected coverage: yes
[43]
  Expected coverage: no
[46]
  Expected coverage: no
[47]
  Expected coverage: no
[48]
  Expected coverage: no
[49]
  Expected coverage: no
[51]
  Expected coverage: no
[53]
  Expected coverage: no
[54]
  Expected coverage: no
[55]
  Expected coverage: no
[59]
  Expected coverage: no
[56]
  Expected coverage: no
[57]
  Expected coverage: no
